Results taken from BindingDB's records for patent US20250154134 (Wigen Biomedicine Technology (Shanghai), 2025).

Target: Focal adhesion kinase 1 (Homo sapiens, UniProt Q05397)
Assay: Inhibitory Activity Assay
Method: A compound serially diluted with DMSO was mixed with a FAK recombinant protein. After the mixture was left to stand at room temperature for 10 min, a biotin-labeled TK substrate (TK) and ATP were added. […] The inhibition percentage and IC50 of the compound were calculated compared to the DMSO control group.

Focal adhesion kinase 1, sequence (Q05397 whole entry): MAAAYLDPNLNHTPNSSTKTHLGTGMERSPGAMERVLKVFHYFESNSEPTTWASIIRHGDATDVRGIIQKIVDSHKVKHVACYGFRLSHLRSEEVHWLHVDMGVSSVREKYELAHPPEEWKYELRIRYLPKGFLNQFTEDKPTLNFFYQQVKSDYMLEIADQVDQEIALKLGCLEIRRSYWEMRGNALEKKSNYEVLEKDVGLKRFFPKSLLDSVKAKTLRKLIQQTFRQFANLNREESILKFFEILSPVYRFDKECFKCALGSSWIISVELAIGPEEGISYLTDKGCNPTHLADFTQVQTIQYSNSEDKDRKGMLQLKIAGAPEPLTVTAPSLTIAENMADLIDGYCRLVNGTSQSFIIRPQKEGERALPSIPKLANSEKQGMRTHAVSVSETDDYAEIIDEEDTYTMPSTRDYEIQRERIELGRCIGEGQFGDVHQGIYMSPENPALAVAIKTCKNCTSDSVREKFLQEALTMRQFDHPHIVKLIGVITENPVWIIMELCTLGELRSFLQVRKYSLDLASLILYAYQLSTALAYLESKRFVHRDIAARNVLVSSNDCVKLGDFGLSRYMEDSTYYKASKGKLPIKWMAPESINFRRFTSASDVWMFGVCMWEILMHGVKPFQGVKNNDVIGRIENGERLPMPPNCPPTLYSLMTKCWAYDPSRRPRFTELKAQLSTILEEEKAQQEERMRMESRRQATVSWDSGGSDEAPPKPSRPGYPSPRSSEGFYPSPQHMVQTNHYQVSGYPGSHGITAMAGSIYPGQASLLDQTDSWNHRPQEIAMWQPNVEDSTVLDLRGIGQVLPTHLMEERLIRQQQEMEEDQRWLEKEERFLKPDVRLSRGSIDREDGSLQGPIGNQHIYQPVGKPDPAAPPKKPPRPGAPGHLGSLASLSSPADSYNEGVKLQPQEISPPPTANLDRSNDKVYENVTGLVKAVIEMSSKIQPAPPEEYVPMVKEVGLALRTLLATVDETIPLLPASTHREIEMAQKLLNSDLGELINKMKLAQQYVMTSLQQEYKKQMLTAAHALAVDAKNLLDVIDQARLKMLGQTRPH

IC50 [nM] | Structure (SMILES)
< 20 | COc1cc(C(=O)NC2CCN(C)CC2)ccc1Nc1ncc(C(F)(F)F)c(Oc2cccc3c2C(=O)N(C)C32CC2)n1 [US20250154134, Compound 3]
< 20 | COc1cc(C(=O)NC2CCNCC2)ccc1Nc1ncc(C(F)(F)F)c(Oc2cccc3c2C(=O)N(C)C32CC2)n1 [US20250154134, Compound 35]
< 20 | COc1cc(C(=O)NC2(C)CCN(C)CC2)ccc1Nc1ncc(Cl)c(Oc2cccc3c2C(=O)N(C)C32CC2)n1 [US20250154134, Compound 118]
< 20 | COc1cc(C(=O)NC2CCN(C)CC2)c(F)cc1Nc1ncc(Cl)c(Oc2cccc3c2C(=O)N(C)C32CCCC2)n1 [US20250154134, Compound 209]
